Data published in patent publication US20100108086A1, “TOBACCO AND TOBACCO PACKAGING MATERIAL FOR PREVENTING OR REDUCING TOBACCO-ASSOCIATED INJURY IN THE AERODIGESTIVE TRACT OF A SUBJECT” (Technion Research & Development Foundation Ltd, priority 2007, published 2010).
One block for each compound: values may come before it.

Assays:
[1] = system: lymphocytes; assay: Western immunoblotting analysis of lymphocyte protein carbonylation; assay type: cell-based, human
Description: Western immunoblotting analysis of protein carbonylation: Salivary proteins were separated by SDS-PAGE using a 10% gel and electro-blotted onto nitrocellulose membranes, as previously described (14). The Oxyblot Kit (Intergen Co, Purchase N.Y.) was used with anti-dinitrophenyhydrazine (DNPH) antibodies to label carbonylated proteins. Protein carbonylation levels were then visualized by reacting labelled blots with a secondary HRP-conjugated anti-rabbit antibody followed by ECL detection of secondarily labelled proteins, as previously described (14).
(§1) Lymphocyte isolation: Blood from 10 consenting, healthy, non-smoking subjects, 5 males and 5 females ranging from 18-55 years of age, was drawn into EDTA-containing vacutainers. Lymphocytes were isolated by Ficoll-Hypaque (Sigma) gradient centrifugation according to the manufacturer's instructions and lymphocytes were suspended at 10^7 cells/ml PBS (Beit-Ha'emek Industries, Israel), and used immediately in experiments.
Treatment of lymphocytes with TS in the presence of saliva: Exposure of lymphocytes to TS was carried out by attaching a Time cigarette (capable of removing particles>[…] in diameter) in which the filter tip was removed to a Cambridge filter which was combined with a vacuum system to aspirate gas-phase TS inside sealed 250 ml flasks containing lymphocytes suspended in 12-15 ml PBS, as previously described (14, 15). A reproducible vacuum was created in the flask and upon application of vacuum for 5 s, 80-100 ml of TS from the lit cigarette was drawn into the flask. […] Saliva treatment of lymphocytes was performed by suspending these in PBS supplemented with 30% (v/v) saliva. Following treatment with the TS of 0.5 cigarettes, flasks were incubated at 37° C. for 20 min in a metabolic shaker and subjected to a further 4 treatments with TS, as described above.
Western immunoblotting analysis of lymphocyte protein carbonylation: Lymphocytes were washed twice in PBS following treatment by centrifugation at 2,000 rpm for 2 minutes to remove saliva and other components of the incubation medium. Lymphocytes were then centrifuged at 14,000 rpm for 1 minute and lysed by sonication for 10 seconds in lysis buffer containing 20 mM Tris pH 7.4, 1 mM EGTA, 1 mM PMSF, 50 μM NaVO4 and 50 mM NaF. Lysates were centrifuged at 14,000 rpm for 1 minute and supernatants were harvested for analysis. Carbonylation analysis was performed as described above.

[2] = system: oral peroxidase (OPO); assay: Oral peroxidase (OPO) activity in saliva, NBS-SCN assay; assay type: biochemical, human; settings: for OPO activity in presence of aldehydes present in TS: 80 μM acrolein, 20 μM crotonaldehyde (FIG. 11)
[3] = system: lymphocytes; assay: Lymphocyte survival, Trypan Blue exclusion assay; assay type: cell-based, human; settings: for death rates at 80 minutes / lymphocyte survival rates after 20 minutes: both, human; for % survival of TS + saliva-treated lymphocytes, Mean: 1 mM GSH
Experimental: Saliva collection: Saliva was collected from healthy subjects, 3 males and 3 females ranging from 21-47 years of age, under non-stimulatory conditions in a quiet room during the morning between 8 am and noon. Saliva collection was performed at least 1 h after eating by spitting into a recipient for 10 minutes, as previously described (43). Following collection, saliva was immediately centrifuged at 800×g for 10 min at 4° C. to remove cells and cell debris and the resulting supernatant was used for biochemical analyses.
as §1
A reproducible vacuum was created in the flask and upon application of vacuum for 5 s, 80-100 ml of TS from the lit cigarette was drawn into the flask. […] Saliva treatment of lymphocytes was performed by suspending these in PBS supplemented with 30% (v/v) saliva. Following treatment with the TS of 0.5 cigarettes, flasks were incubated at 37° C. for 20 min in a metabolic shaker and subjected to a further 4 treatments with TS, as described above.
Measurement of lymphocyte survival: Lymphocyte viability was assessed by Trypan Blue exclusion assay.

[4] = target: T1, MPO (Homo sapiens, UniProt P05164); assay: Control MPO activity (commercial MPO) in presence of dapsone; assay type: biochemical; settings: 150 μM dapsone
T1 construct: purchased
T1 sequence (P05164 49-745): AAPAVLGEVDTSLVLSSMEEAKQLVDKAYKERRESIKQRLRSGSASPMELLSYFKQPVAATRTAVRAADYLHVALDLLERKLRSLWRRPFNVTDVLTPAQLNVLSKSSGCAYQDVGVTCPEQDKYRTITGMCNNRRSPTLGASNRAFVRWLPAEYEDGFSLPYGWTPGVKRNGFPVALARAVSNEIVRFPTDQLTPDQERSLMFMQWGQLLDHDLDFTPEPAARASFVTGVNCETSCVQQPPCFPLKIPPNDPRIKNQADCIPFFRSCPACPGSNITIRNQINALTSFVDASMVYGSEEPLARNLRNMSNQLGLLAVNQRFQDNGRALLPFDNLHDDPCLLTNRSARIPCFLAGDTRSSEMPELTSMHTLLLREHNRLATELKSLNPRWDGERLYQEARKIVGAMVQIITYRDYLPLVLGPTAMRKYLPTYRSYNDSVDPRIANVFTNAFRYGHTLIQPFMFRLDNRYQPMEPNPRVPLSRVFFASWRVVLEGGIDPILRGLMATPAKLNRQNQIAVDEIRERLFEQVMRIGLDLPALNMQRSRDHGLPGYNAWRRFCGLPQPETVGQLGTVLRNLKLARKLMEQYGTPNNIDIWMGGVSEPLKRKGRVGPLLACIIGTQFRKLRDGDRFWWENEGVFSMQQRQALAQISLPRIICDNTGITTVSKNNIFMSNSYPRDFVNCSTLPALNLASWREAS
Experimental: FIG. 7 is a data plot depicting the effect of increasing concentrations of dapsone (4-aminophenylsulfone) on OPO activity in TS-treated saliva. Abbreviations: NO.1, NO.2, NO.3, NO4 and NO.5 correspond to saliva from 5 different subjects and plasma corresponds to commercial MPO.
Analysis of OPO activity: OPO activity was measured according to the 2-nitrobenzoic-thiocyanate (NBS-SCN) assay, as previously described (20). Briefly, DTNB is reduced to NBS by addition of β-mercaptoethanol and decreases in NBS concentration by reaction with OSCN^−, a product of OPO, are monitored spectrophotometrically by measuring absorbance at 412 nm at pH 5.6 (18). One unit of enzyme activity was defined as the activity required to cleave 1 μmol of NBS/min at 22° C., using a molar extinction coefficient of 12,800 (20).
Thus, in order to determine which of the MPO or SPO activity components of OPO activity are lost as a result of exposure to TS, OPO activity in TS-treated saliva was measured in the presence of increasing concentrations of […] dapsone.

[5] = TS + saliva, 1 mM agent, 80 minutes (FIG. 19)

Compound: O=c1[nH]c(=O)c2[nH]c(=O)[nH]c2[nH]1 [uric acid]
lymphocyte protein carbonylation levels ([1]; uric acid added to suspension medium instead of saliva, 10 or 100 μM, no TS (FIG. 18)): reduced carbonylation levels

Compound: C=CC=O [acrolein]
OPO activity in presence of aldehydes present in TS [2]: unaffected | lymphocyte survival rate ([3]; acrolein with saliva (second of the two 'respectively' values, order presumed)): 66.4% | lymphocyte survival rate ([3]; acrolein without saliva (first of the two 'respectively' values, order presumed)): 57.9% | death rates at 80 minutes [3]: 57.3% | lymphocyte survival rates after 20 minutes [3]: 63.3% | lymphocyte protein carbonylation levels ([1]; 80 μM acrolein + saliva vs acrolein alone, 20 min (FIG. 22)): did not enhance carbonylation levels

Compound: C/C=C/C=O [crotonaldehyde]
OPO activity in presence of aldehydes present in TS [2]: unaffected | death rates at 80 minutes [3]: 75.3% | lymphocyte survival rates after 20 minutes [3]: 80.3%

Compound: N#C[S-].[K+] [KSCN, potassium thiocyanate]
protection against TS-induced loss of OPO activity [2]: significant protection against loss of OPO activity

Compound: [Cl][Fe]([Cl])[Cl] [FeCl3]
inhibition of OPO activity on exposure of saliva ([2]; 1 mM ascorbate or 100 μM FeCl3, 2 h (FIG. 10)): did not inhibit OPO activity

Compound: O=C1O[C@H]([C@@H](O)CO)C(O)=C1O [ascorbate]
lymphocyte survival rate ([3]; ascorbate (1 mM) added to PBS containing iron as FeCl3 (90 μM), no saliva (FIG. 23, Column 8)): 77% | lymphocyte survival rate ([3]; ascorbate (1 mM) added to saliva-containing medium without TS, 20 min (FIG. 23, column 6)): 78%

Compound: C/C1=C2/[N-][C@H]([C@H](CC(N)=O)[C@@]2(C)CCC(=O)NC[C@@H](C)OP(=O)([O-])O[C@H]2[C@@H](O)[C@@H](n3cnc4cc(C)c(C)cc43)O[C@@H]2CO)[C@]2(C)N=C(/C(C)=C3N=C(/C=C4N=C1[C@@H](CCC(N)=O)C\4(C)C)[C@@H](CCC(N)=O)[C@]\3(C)CC(N)=O)[C@@H](CCC(N)=O)[C@]2(C)CC(N)=O.[Co+3].[OH-] [OH—CO, hydroxocobalamin]
prevention of KCN-associated loss of OPO activity ([2]; 1 mM OH—CO, saliva treated 2 min with 1 mM KCN (FIG. 15)): completely prevent | prevention of loss of OPO activity in TS-treated saliva ([2]; increasing amounts of OH—CO (0.5, 1, 2 mM, FIG. 14), 40 min after treatment with TS): prevent, to a significant extent, the loss of OPO activity | prevention of TS- and KCN-associated loss of OPO activity ([2]; preincubation of saliva with OH—CO): could prevent both TS- and KCN-associated loss of OPO activity

Compound: N[C@@H](CCC(=O)N[C@@H](CS)C(=O)NCC(=O)O)C(=O)O [GSH, L-γ-glutamyl-1-cysteine-glycine]
loss of OPO activity in TS-treated saliva in the presence or absence of agent ([2]; 1 mM agent (FIG. 9)): similar | effect on death rate of lymphocytes exposed to TS and saliva [3]: partially prevented | % survival of TS + saliva-treated lymphocytes, Mean ([3]; 20 minute treatment): 90.6% | % survival of TS + saliva-treated lymphocytes, Mean ([3]; 80 minute treatment): 28.8% | lymphocyte survival rate ([3]; GSH added in the presence of 20 μM crotonaldehyde, 20 minutes): 82.3% | lymphocyte survival rate ([3]; GSH added in the presence of 20 μM crotonaldehyde, 80 minutes): 81.3% | lymphocyte survival rate ([3]; GSH added in the presence of 80 μM acrolein, 20 minutes): 93.3% | lymphocyte survival rate ([3]; GSH added in the presence of 80 μM acrolein, 80 minutes): 87.4% | lymphocyte survival rate ([3]; GSH added in the presence of 2 mM acetaldehyde, 20 minutes): 93.3% | lymphocyte survival rate ([3]; GSH added in the presence of 2 mM acetaldehyde, 80 minutes): 93.6% | lymphocyte survival rate ([3]; TS + saliva, 1 mM agent, 20 minutes (FIG. 19)): 93.4% | lymphocyte survival rate [3, 5]: 24.3% | protection assessed by lymphocyte protein carbonylation levels ([1]; TS + saliva, 1 mM antioxidant, 20 minutes (FIG. 20)): unique protection | protein carbonylation levels in aldehyde-treated lymphocytes ([1]; aldehydes + 1 mM GSH, 20 min (FIG. 21)): protection

Loss of OPO activity ([2]; 150 μM dapsone, TS-treated saliva (FIG. 7)): 60-85% | loss of OPO activity in the presence or absence of agent ([2]; 150 μM dapsone, TS-treated saliva containing ~40% MPO (FIG. 8)): similar | control MPO activity [4]: unaffected
Compound: Nc1ccc(S(=O)(=O)c2ccc(N)cc2)cc1 [dapsone, 4-aminophenylsulfone]

Compound: CC(=O)N[C@@H](CS)C(=O)O [NAC, N-acetylcysteine]
effect on death rate of lymphocytes exposed to TS and saliva [3]: did not alter the death rate

Compound: CC=O [acetaldehyde]
death rates at 80 minutes [3]: 92.7%

Compound: CC(=O)N(O)CCCCCNC(=O)CCC(=O)N(O)CCCCCNC(=O)CCC(=O)N(O)CCCCCN [deferoxamine]
lymphocyte survival rate [3, 5]: 23.7%
